Where “and” joins values, the source holds several entries; their conditions need not be identical. Identical values can stand only once. Entries after “also recorded” stand apart in the source; their conditions may differ. Like-named read-outs stand apart in the source and are kept apart here. Marks after values point to notes of the source that are not given here.
Test: FIH study 67856633LYM1001 plasma pharmacokinetics
Assay type: in vivo, human
Conditions: for AUC: read-out: AUCτ
Excerpt: The study consists of a dose escalation phase (Part 1), to determine the recommended Phase 2 dose(s) (RP2D[s]), followed by an expansion phase at the RP2D(s) (Part 2). The dose escalation phase is supported using an adaptive dose escalation strategy guided by the modified continual reassessment method (mCRM) based on a Bayesian Logistic Regression Model (BLRM) with escalation with overdose control (EWOC) principle. The mCRM design allows the use of all cumulative dose-limiting toxicities (DLT) data up to the current dose cohort.
In Part 1, subjects were enrolled in cohorts of daily oral doses at 50 mg, 100 mg, 200 mg (1×200 mg or 4×50 mg), 300 mg (3×100 mg or 6×50 mg), 400 mg (2×200 mg or 8×50 mg), and 600 mg (3×200 mg), and loading dosing cohorts—400 mg loading dose once daily for 14 days, followed by 300 mg once daily, and 300 mg loading dose twice daily for 7 days followed by 300 mg once daily. In Part 2, subjects received daily oral doses of 300 mg.
In Part 1, PK data were available in subjects receiving doses of 50 mg (1×50 mg), 100 mg (2×50 mg), 200 mg (4×50 mg or 1×200 mg), 300 mg (6×50 mg or 3×100 mg), 400 mg (8×50 mg or 2×200 mg), and 600 mg (3×200 mg). Pharmacokinetic data were also available from the loading dose regimens of 400 mg (8×50 mg) loading dose once daily for 14 days followed by 300 mg (6×50 mg) once daily, and 300 mg (6×50 mg) loading dose twice daily for 7 days followed by 300 mg (6×50 mg) once daily.

[1] = Cycle 1 Day 1, 200 mg capsule, cohort 3 × 200 mg, individual values, N = 2, listed as JNJ-67856633
[2] = Cycle 2 Day 1, 50 mg capsule, cohort 6 × 50 mg (300 mg QD), mean, listed as JNJ-67856633
[3] = Cycle 2 Day 1, 200 mg capsule, cohort 200 mg, individual values, N = 2, listed as JNJ-67856633
[4] = Cycle 2 Day 1, 200 mg capsule, cohort 3 × 200 mg, individual values, N = 2, listed as JNJ-67856633
[5] = Cycle 2 Day 1, cohort 6 × 50 mg BID > QD, individual values, N = 2, listed as JNJ-67856633
[6] = Cycle 2 Day 1 / Cycle 1 Day 1, 50 mg capsule, cohort 50 mg, mean
[7] = Cycle 2 Day 1 / Cycle 1 Day 1, cohort 2 × 50 mg, mean
[8] = Cycle 2 Day 1 / Cycle 1 Day 1, cohort 2 × 200 mg food adlib, mean
[9] = Cycle 2 Day 1 / Cycle 1 Day 1, cohort 2 × 200 mg, mean
[10] = Cycle 2 Day 1 / Cycle 1 Day 1, cohort 3 × 200 mg, individual values, listed as JNJ-67856633
[11] = Cycle 2 Day 1 / Cycle 1 Day 1, cohort 4 × 50 mg, mean
[12] = Cycle 2 Day 1 / Cycle 1 Day 1, cohort 6 × 50 mg, mean
[13] = Cycle 2 Day 1 / Cycle 1 Day 1, cohort 8 × 50 mg > 6 × 50 mg, mean
[14] = Cycle 2 Day 1 / Cycle 1 Day 1, cohort 8 × 50 mg, mean

O=C(Nc1ccnc(C(F)(F)F)c1)c1cnn(-c2cccc3c(=O)[nH]ccc23)c1C(F)(F)F [Compound A, 1-(1-oxo-1,2-dihydroisoquinolin-5-yl)-5-(trifluoromethyl)-N-[2-(trifluoromethyl)pyridin-4-yl]-1H-pyrazole-4-carboxamide]
AUCτ (Cycle 1 Day 1, 50 mg capsule, cohort 6 × 50 mg (300 mg QD), mean, n = 9, listed as JNJ-67856633): 152^c μg · h/mL
Cmax (Cycle 1 Day 1, 50 mg capsule, cohort 6 × 50 mg (300 mg QD), mean, listed as JNJ-67856633): 8.81 µg/mL
Tmax (Cycle 1 Day 1, 200 mg capsule, cohort 3 × 200 mg, individual values, N = 2): 3.00, 3.00 h
AUCτ [1]: 76.6 µg·h/mL
Cmax [1]: 4.50 µg/mL
Cmin (Cycle 2 Day 1, 50 mg capsule, cohort 50 mg, mean): 6.85 µg/mL
Cmin (Cycle 2 Day 1, 50 mg capsule, cohort 2 × 50 mg, mean): 15.6 µg/mL
Cmin (Cycle 2 Day 1, 50 mg capsule, cohort 4 × 50 mg, Subject 100032 excluded, mean): 30.4^e μg/mL
Cmin (Cycle 2 Day 1, 50 mg capsule, cohort 6 × 50 mg (300 mg QD), mean): 39.5 µg/mL
AUCτ [2]: 1144 µg·h/mL
Cmax [2]: 55.2 µg/mL
Cmin (Cycle 2 Day 1, 50 mg capsule, cohort 8 × 50 mg, mean): 55.6 µg/mL
Cmax [3]: 14.5 µg/mL
Cmin [3]: 15.5, μg/mL and 11.4 μg/mL
Tmax [3]: 0.5 h
Cmin (Cycle 2 Day 1, 200 mg capsule, cohort 2 × 200 mg food adlib, mean): 33.3 µg/mL
Cmin (Cycle 2 Day 1, 200 mg capsule, cohort 2 × 200 mg, mean): 30.7 µg/mL
AUCτ [4]: 458 µg·h/mL and 1811 µg·h/mL
Cmax [4]: 21.2, μg/mL and 98.6 μg/mL
Cmin [4]: 13.5 µg/mL and 71.2 µg/mL
Tmax [4]: 0.00 h and 0.50 h
Cmax (Cycle 2 Day 1, cohort 6 × 50 mg BID > QD (300 mg BID 7 days then 300 mg QD), individual values, N = 2): about 29.2 μg/mL; also recorded: about 67 μg/mL
Cmax (Cycle 2 Day 1, cohort 6 × 50 mg BID > QD (300 mg BID 7 days then 300 mg QD), individual values, N = 2, listed as JNJ-67856633): 29.2, μg/mL and 67.0 μg/mL
AUCτ (Cycle 2 Day 1, cohort 6 × 50 mg BID > QD, individual values, N = 2): about 651 μg · h/mL; also recorded: about 1406 μg · h/mL
AUCτ [5]: 651 µg·h/mL and 1406 µg·h/mL
Cmin [5]: 26.1, μg/mL and 50.6 μg/mL
Tmax [5]: 3.00, 3.00 h
Cmin (Cycle 2 Day 1, cohort 8 × 50 mg > 6 × 50 mg, Subject 100070 excluded, mean): 55.8^g μg/mL
ARAUC [6]: 8.37
ARCmax [6]: 7.30
ARAUC (Cycle 2 Day 1 / Cycle 1 Day 1, 200 mg capsule, cohort 200 mg): 5.51^i
ARCmax (Cycle 2 Day 1 / Cycle 1 Day 1, 200 mg capsule, cohort 200 mg, individual values, listed as JNJ-67856633): 4.81, and 3.21
ARAUC [7]: 7.80
ARCmax [7]: 6.56
ARAUC [8]: 12.7
ARCmax [8]: 12.0
ARAUC [9]: 9.35
ARCmax [9]: 7.40
ARAUC [10]: 3.73 and 23.7
ARCmax [10]: 2.72 and 21.9
ARAUC [11]: 8.10
ARCmax [11]: 7.32
ARCmax (Cycle 2 Day 1 / Cycle 1 Day 1, cohort 6 × 50 mg BID > QD): 10.4^j
ARAUC [12]: 8.50
ARCmax [12]: 7.32
ARAUC [13]: 9.80^g, h
ARCmax [13]: 7.7^g
ARAUC [14]: 12.4^f
ARCmax [14]: 11.3^f
AUC (human, plasma, oral, 50 mg, Cycle 1 Day 1, 50 mg capsule, cohort 50 mg, mean): 29.1 µg·h/mL
Cmax (human, plasma, oral, 50 mg, Cycle 1 Day 1, 50 mg capsule, cohort 50 mg, mean, read-out: Cmax): 1.6 µg/mL
Tmax (human, plasma, oral, 50 mg, Cycle 1 Day 1, 50 mg capsule, cohort 50 mg, median, read-out: Tmax): 3 h
AUC (human, plasma, oral, 50 mg, Cycle 2 Day 1, 50 mg capsule, cohort 50 mg, mean): 180 µg·h/mL
Cmax (human, plasma, oral, 50 mg, Cycle 2 Day 1, 50 mg capsule, cohort 50 mg, mean, read-out: Cmax): 8.74 µg/mL
Tmax (human, plasma, oral, 50 mg, Cycle 2 Day 1, 50 mg capsule, cohort 50 mg, median, read-out: Tmax): 2 h
AUC (human, plasma, oral, 100 mg, Cycle 1 Day 1, 50 mg capsule, cohort 2 × 50 mg, mean): 51.4 µg·h/mL
Cmax (human, plasma, oral, 100 mg, Cycle 1 Day 1, 50 mg capsule, cohort 2 × 50 mg, mean, read-out: Cmax): 3 µg/mL
Tmax (human, plasma, oral, 100 mg, Cycle 1 Day 1, 50 mg capsule, cohort 2 × 50 mg, median, read-out: Tmax): 4 h
AUC (human, plasma, oral, 100 mg, Cycle 2 Day 1, 50 mg capsule, cohort 2 × 50 mg, mean): 366 µg·h/mL
Cmax (human, plasma, oral, 100 mg, Cycle 2 Day 1, 50 mg capsule, cohort 2 × 50 mg, mean, read-out: Cmax): 19.9 µg/mL
Tmax (human, plasma, oral, 100 mg, Cycle 2 Day 1, 50 mg capsule, cohort 2 × 50 mg, median, read-out: Tmax): 2 h
AUC (human, plasma, oral, 200 mg, Cycle 1 Day 1, 50 mg capsule, cohort 4 × 50 mg, Subject 100032 excluded, mean): 118 µg·h/mL
